From ChEMBL document CHEMBL2429819, “Synthesis, antibacterial screening, and POM analyses of novel bis-isoxazolyl/pyrazolyl-1,3-diols” (2013)
Calls of active or inactive are those of the source. No cut-off for these calls is given here.

What was measured:
Format in all cases: functional
Conditions in all cases: for zone of inhibition at 100 µg/mL: read-out: DIZ
Proteus vulgaris = experiment: Antibacterial activity against Proteus vulgaris at 100 ug/ml after 24 hrs
Escherichia coli = experiment: Antibacterial activity against Escherichia coli at 100 ug/ml after 24 hrs
Bacillus subtilis = experiment: Antibacterial activity against Bacillus subtilis at 100 ug/ml after 24 hrs
Muscodor albus = experiment: Antibacterial activity against Muscodor albus at 100 ug/ml after 24 hrs

Compound	zone of inhibition at 100 µg/mL (Proteus vulgaris) [mm]	zone of inhibition at 100 µg/mL (Escherichia coli) [mm]	zone of inhibition at 100 µg/mL (Bacillus subtilis) [mm]	zone of inhibition at 100 µg/mL (Muscodor albus) [mm]	diameter of the inhibition zone (DIZ) (Escherichia coli)	diameter of the inhibition zone (DIZ) (Bacillus subtilis)	diameter of the inhibition zone (DIZ) (Muscodor albus)	diameter of the inhibition zone (DIZ) (Proteus vulgaris)
Oc1cc(O)c(-c2cc(-c3ccccc3)[nH]n2)cc1-c1cc(-c2ccccc2)[nH]n1	15.2	15.2	12.2	14	–	–	–	–
Oc1cc(O)c(-c2cc(-c3cccnc3)on2)cc1-c1cc(-c2cccnc2)on1	11.9	12.4	15.8	16.1	–	–	–	–
O=C(CC(=O)c1cc(C(=O)CC(=O)c2cccnc2)c(O)cc1O)c1cccnc1	14.2	16.4	11.9	15.7	–	–	–	–
O=C(CC(=O)c1cc(C(=O)CC(=O)c2ccccc2)c(O)cc1O)c1ccccc1	13.3	12.4	15.8	15.2	–	–	–	–
O=C(CC(=O)c1cc(C(=O)CC(=O)c2ccc(Cl)cc2)c(O)cc1O)c1ccc(Cl)cc1	11	–	13.2	15	inactive	–	–	–
Oc1cc(O)c(-c2cc(-c3cccs3)[nH]n2)cc1-c1cc(-c2cccs2)[nH]n1	15.3	15.4	–	11.7	–	inactive	–	–
Oc1cc(O)c(-c2cc(-c3ccccc3)on2)cc1-c1cc(-c2ccccc2)on1	15.2	17	11.2	–	–	–	inactive	–
COc1ccc(-c2cc(-c3cc(-c4cc(-c5ccc(OC)cc5)on4)c(O)cc3O)no2)cc1	15.4	14.3	16.5	15.9	–	–	–	–
O=C(CC(=O)c1cc(C(=O)CC(=O)c2cccs2)c(O)cc1O)c1cccs1	14.9	15.5	15.5	14.9	–	–	–	–
COc1ccc(-c2cc(-c3cc(-c4cc(-c5ccc(OC)cc5)[nH]n4)c(O)cc3O)n[nH]2)cc1	–	12.1	15.5	14.4	–	–	–	inactive
Cc1ccc(C(=O)CC(=O)c2cc(C(=O)CC(=O)c3ccc(C)cc3)c(O)cc2O)cc1	12.6	13.8	16.2	13.1	–	–	–	–
CC[C@H]1OC(=O)[C@H](C)[C@@H](O[C@H]2C[C@@](C)(OC)[C@@H](O)[C@H](C)O2)[C@H](C)[C@@H](O[C@@H]2O[C@H](C)C[C@H](N(C)C)[C@H]2O)[C@](C)(O)C[C@@H](C)C(=O)[C@H](C)[C@@H](O)[C@]1(C)O [ERYTHROMYCIN]	25.1	27.4	27.1	26.1	–	–	–	–
Oc1cc(O)c(-c2cc(-c3ccc(Cl)cc3)[nH]n2)cc1-c1cc(-c2ccc(Cl)cc2)[nH]n1	15.7	15	16.2	15.7	–	–	–	–
Oc1cc(O)c(-c2cc(-c3cccnc3)[nH]n2)cc1-c1cc(-c2cccnc2)[nH]n1	15.4	15.2	14.2	15.3	–	–	–	–
Cc1ccc(-c2cc(-c3cc(-c4cc(-c5ccc(C)cc5)[nH]n4)c(O)cc3O)n[nH]2)cc1	15.7	14.7	12.4	–	–	–	inactive	–
NC[C@@H]1O[C@H](O[C@H]2[C@@H](O)[C@H](O[C@@H]3[C@@H](O)[C@H](N)C[C@H](N)[C@H]3O[C@H]3O[C@H](CN)[C@@H](O)[C@H](O)[C@H]3N)O[C@@H]2CO)[C@H](N)[C@@H](O)[C@@H]1O [FRAMYCETIN]	25.3	26.1	26.1	25.8	–	–	–	–
Cc1ccc(-c2cc(-c3cc(-c4cc(-c5ccc(C)cc5)on4)c(O)cc3O)no2)cc1	11.4	–	12.7	14.7	inactive	–	–	–
Oc1cc(O)c(-c2cc(-c3cccs3)on2)cc1-c1cc(-c2cccs2)on1	–	12.5	13.2	16	–	–	–	inactive
COc1ccc(C(=O)CC(=O)c2cc(C(=O)CC(=O)c3ccc(OC)cc3)c(O)cc2O)cc1	–	11.4	14.9	16.1	–	–	–	inactive
Oc1cc(O)c(-c2cc(-c3ccc(Cl)cc3)on2)cc1-c1cc(-c2ccc(Cl)cc2)on1	13.2	12.7	13.7	15	–	–	–	–
